Data as given in patent US9983218B2, “Indole and indoline derivatives and methods of use thereof” (AbbVie Inc., priority 2008, dated 2018).
Read-outs that look alike come from different tables or passages of the source.

Tested on: SK-N-SH human neuroblastoma cells
Experiment: Serum deprivation/JC-1 mitochondrial membrane potential (MMP) assay
Format: cell-based
Settings: for Emax: SK-N-SH, read-out: JC-1 max %; for EC50: SK-N-SH cells, serum deprivation ~18 hours, JC-1 ratio normalized to peak value for 10 μM dimebolin, single curve fit to mean data of n=2-3, read-out: EC50
Outline: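 Cells were serum-deprived ~18 h in MEM with or without compound (DMSO ≤1%), then stained with JC-1 for 35 min at 37° C. The red/green fluorescence ratio (560/595 vs 485/535 nm) was normalized to the peak response of 10 μM dimebolin. EC50 came from one curve fit to mean data (n=2-3, duplicates).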

[1] = Homo sapiens, percent maximal intensity in JC-1 ratio normalized to 10 μM dimebolin

Work on `Fc1ccc2c(c1)c1c(n2Cc2nc3ccccc3[nH]2)C2CCN(CC2)C1` [Example 250, 6-(1H-benzimidazol-2-ylmethyl)-9-fluoro-3,4,5,6-tetrahydro-1H-2,5-ethanoazepino[4,3-b]indole] yielded an Emax [1] of 77.3% and an EC50 (Homo sapiens) of 8.37 µM.
In the case of `Fc1ccc2c(c1)c1c(n2Cc2cccc3cccnc23)C2CCN(CC2)C1` [Example 251, 9-fluoro-6-(quinolin-8-ylmethyl)-3,4,5,6-tetrahydro-1H-2,5-ethanoazepino[4,3-b]indole], the Emax [1] is reported as 193% and the EC50 (Homo sapiens) is reported as 4.39 µM.
With `Cc1cc(Cn2c3c(c4cc(F)ccc42)CN2CCC3CC2)on1` [Example 252, 9-fluoro-6-[(3-methyl-1,2-oxazol-5-yl)methyl]-3,4,5,6-tetrahydro-1H-2,5-ethanoazepino[4,3-b]indole] the Emax [1] was 109% and the EC50 (Homo sapiens) was 6.2 µM.
For `Fc1ccc2c(c1)c1c(n2Cc2cn3nc(Cl)ccc3n2)C2CCN(CC2)C1` [Example 253, 6-[(6-chloroimidazo[1,2-b]pyridazin-2-yl)methyl]-9-fluoro-3,4,5,6-tetrahydro-1H-2,5-ethanoazepino[4,3-b]indole], the Emax [1] was 185% and the EC50 (Homo sapiens) was 4.4 µM.
Compound `Fc1ccc2c(c1)c1c(n2Cc2cn3cccnc3n2)C2CCN(CC2)C1` [Example 254, 9-fluoro-6-(imidazo[1,2-a]pyrimidin-2-ylmethyl)-3,4,5,6-tetrahydro-1H-2,5-ethanoazepino[4,3-b]indole] has an Emax [1] of 57.1% and an EC50 (Homo sapiens) of 8.09 µM.
`O=c1cccnn1-c1ccc(Cn2c3c(c4cc(F)ccc42)CN2CCC3CC2)cc1` [Example 255, 2-{4-[(9-fluoro-1,3,4,5-tetrahydro-6H-2,5-ethanoazepino[4,3-b]indol-6-yl)methyl]phenyl}pyridazin-3(2H)-one] was tested, and the Emax [1] was 171% and the EC50 (Homo sapiens) was 5.72 µM.
`FC(F)(F)c1ccc(Cn2c3c(c4ccccc42)CN2CCC3CC2)cn1` [Example 256, 6-{[6-(trifluoromethyl)pyridin-3-yl]methyl}-3,4,5,6-tetrahydro-1H-2,5-ethanoazepino[4,3-b]indole] showed an Emax [1] of 89.6% and an EC50 (Homo sapiens) of 15.5 µM.
Work on `Clc1ccc2nc(Cn3c4c(c5ccccc53)CN3CCC4CC3)cn2n1` [Example 257, 6-[(6-chloroimidazo[1,2-b]pyridazin-2-yl)methyl]-3,4,5,6-tetrahydro-1H-2,5-ethanoazepino[4,3-b]indole] yielded an Emax [1] of 155% and an EC50 (Homo sapiens) of 3.6 µM.
`O=c1ccccn1-c1cccc(-n2c3c(c4cc(F)ccc42)CN2CCC3CC2)n1` [Example 258, 6′-(9-fluoro-1,3,4,5-tetrahydro-6H-2,5-ethanoazepino[4,3-b]indol-6-yl)-2H-1,2′-bipyridin-2-one] gave an Emax [1] of 149% and an EC50 (Homo sapiens) of 2.99 µM.
In the case of `Oc1ncnc2ccc(-n3c4c(c5cc(F)ccc53)CN3CCC4CC3)cc12` [Example 259, 6-(9-fluoro-1,3,4,5-tetrahydro-6H-2,5-ethanoazepino[4,3-b]indol-6-yl)quinazolin-4-ol], the Emax [1] is reported as 126% and the EC50 (Homo sapiens) is reported as 3.2 µM.
In the case of `O=c1cnc2ccc(-n3c4c(c5cc(F)ccc53)CN3CCC4CC3)cc2[nH]1` [Example 260, 7-(9-fluoro-1,3,4,5-tetrahydro-6H-2,5-ethanoazepino[4,3-b]indol-6-yl)quinoxalin-2(1H)-one], the Emax [1] is reported as 191% and the EC50 (Homo sapiens) is reported as 2.91 µM.
With `Cc1ncc(-n2c3c(c4cc(F)ccc42)CN2CCC3CC2)cn1` [Example 263, 9-fluoro-6-(2-methylpyrimidin-5-yl)-3,4,5,6-tetrahydro-1H-2,5-ethanoazepino[4,3-b]indole] the Emax [1] was 108% and the EC50 (Homo sapiens) was 11 µM.
For `c1cc(N2CCOCC2)nc(-n2c3c(c4ccccc42)CN2CCC3CC2)c1` [Example 265, 6-[6-(morpholin-4-yl)pyridin-2-yl]-3,4,5,6-tetrahydro-1H-2,5-ethanoazepino[4,3-b]indole], the Emax [1] was 264% and the EC50 (Homo sapiens) was 1.84 µM.
`NC(=O)c1ccc(-n2c3c(c4ccccc42)CN2CCC3CC2)nc1` [Example 266, 6-(1,3,4,5-tetrahydro-6H-2,5-ethanoazepino[4,3-b]indol-6-yl)nicotinamide] gave an Emax [1] of 127% and an EC50 (Homo sapiens) of 10.7 µM.
Work on `c1ccc2c(c1)c1c(n2-c2ccc3c(c2)CCNC3)C2CCN(CC2)C1` [Example 267, 6-(1,2,3,4-tetrahydroisoquinolin-6-yl)-3,4,5,6-tetrahydro-1H-2,5-ethanoazepino[4,3-b]indole] yielded an Emax [1] of 70% and an EC50 (Homo sapiens) of 9.72 µM.
`CN1CCc2cc(-n3c4c(c5ccccc53)CN3CCC4CC3)ccc2C1` [Example 268, 6-(2-methyl-1,2,3,4-tetrahydroisoquinolin-6-yl)-3,4,5,6-tetrahydro-1H-2,5-ethanoazepino[4,3-b]indole] showed an Emax [1] of 237% and an EC50 (Homo sapiens) of 4.43 µM.
`c1ccc2c(c1)c1c(n2-c2ccc3ncncc3c2)C2CCN(CC2)C1` [Example 269, 6-(quinazolin-6-yl)-3,4,5,6-tetrahydro-1H-2,5-ethanoazepino[4,3-b]indole] gave an Emax [1] of 204% and an EC50 (Homo sapiens) of 0.745 µM.
In the case of `c1ccc2c(c1)c1c(n2-c2ccc3ccncc3c2)C2CCN(CC2)C1` [Example 270, 6-(isoquinolin-7-yl)-3,4,5,6-tetrahydro-1H-2,5-ethanoazepino[4,3-b]indole], the Emax [1] is reported as 270% and the EC50 (Homo sapiens) is reported as 2.81 µM.
In the case of `c1ccc2c(c1)c1c(n2-c2ccc3cnccc3c2)C2CCN(CC2)C1` [Example 271, 6-(isoquinolin-6-yl)-3,4,5,6-tetrahydro-1H-2,5-ethanoazepino[4,3-b]indole], the Emax [1] is reported as 264% and the EC50 (Homo sapiens) is reported as 3.17 µM.
Compound `c1ccc2c(c1)c1c(n2-c2cc(-n3ccnc3)ccn2)C2CCN(CC2)C1` [Example 272, 6-[4-(1H-imidazol-1-yl)pyridin-2-yl]-3,4,5,6-tetrahydro-1H-2,5-ethanoazepino[4,3-b]indole] has an Emax [1] of 149% and an EC50 (Homo sapiens) of 3.99 µM.
Work on `O=c1ccccn1-c1cccc(-n2c3c(c4ccccc42)CN2CCC3CC2)n1` [Example 273, 6′-(1,3,4,5-tetrahydro-6H-2,5-ethanoazepino[4,3-b]indol-6-yl)-2H-1,2′-bipyridin-2-one] yielded an Emax [1] of 190% and an EC50 (Homo sapiens) of 7.48 µM.
`O=C1COc2cc(-n3c4c(c5ccccc53)CN3CCC4CC3)ccc2N1` [Example 275, 7-(1,3,4,5-tetrahydro-6H-2,5-ethanoazepino[4,3-b]indol-6-yl)-2H-1,4-benzoxazin-3(4H)-one] showed an Emax [1] of 130% and an EC50 (Homo sapiens) of 3.44 µM.
Compound `NC(=O)c1cc(-n2c3c(c4ccccc42)CN2CCC3CC2)ccc1N` [Example 276, 2-amino-5-(3,4,5,6-tetrahydro-1H-2,5-ethanoazepino[4,3-b]indol-6(1H)-yl)benzamide] has an EC50 of 6.65 µM and a JC-1 max % (percent maximal intensity in JC-1 ratio normalized to 10 μM dimebolin) of 80.55%.
Work on `CN1[C@H]2CC[C@@H]1c1c(n(-c3ccc4ncccc4c3)c3ccccc13)C2` [Example 281, (7S,10R)-11-methyl-5-(quinolin-6-yl)-5,6,7,8,9,10-hexahydro-7,10-epiminocyclohepta[b]indole] yielded an Emax [1] of 228% and an EC50 (Homo sapiens) of 1.74 µM.
`Fc1ccc2c(c1)c1c(n2Cc2ccc(Cl)nc2)CC2CNC1C2` (stereo not shown) [Example 285, 6-[(6-chloropyridin-3-yl)methyl]-9-fluoro-1,2,3,4,5,6-hexahydro-1,4-methanoazepino[4,3-b]indole] showed an Emax [1] of 149% and an EC50 (Homo sapiens) of 9.41 µM.
`CN1[C@@H]2CC[C@H]1c1c(n(-c3ccc4ncccc4c3)c3ccccc13)C2` [Example 286, (7R,10S)-11-methyl-5-(quinolin-6-yl)-5,6,7,8,9,10-hexahydro-7,10-epiminocyclohepta[b]indole] was tested, and the Emax [1] was 239% and the EC50 (Homo sapiens) was 4.41 µM.
